Like-named read-outs stand apart in the source and are kept apart here. Where no end group is shown, it is not given here.

For data set [1], the system named is Escherichia coli D21. The data set can be described thus: Antimicrobial inhibition zone assay, E. coli D21. The format is cell-based. The note with it: Table 2. Here is the method:
Antimicrobial assay. The antibacterial activity was tested against Bacillus megaterium BM11, Staphylococcus aureus Cowahl, Streptococcus pyogenes b hemolytic group A, Pseudomonas aeruginosa ATCC 15692, Escherichia coli D21, E. coli D21e7, E. coli D21f1, E. coli D21f2 and E. coli D22, using an inhibition zone assay on LB broth/1% agarose plates seeded with 2×10^5 viable bacteria (Hultmark, D., Engstrom, A., Andersson, K., Steiner, H., Bennich, H. & Boman, H. G. (1983) Insect immunity. Attacin, a family of antibacterial proteins from Hyulophora cecropin, EMBO J. 2, 571-576). Fresh cultures of Candida albicans ATCC 10261 were inoculated in WB broth, pH 6.5, and grown at 37° C. to approximately 0.6 OD600. Before plating, cultures were diluted 300 fold and then incubated overnight at 37° C. in the presence of the test peptide, the concentration of which was established by amino acid analysis. Inhibition zones were measured and the lethal concentration (LC, the lowest concentration that inhibits the growth) was calculated from the diameter of the zones obtained in serial dilutions of the test substance by using the formula given in Hultmark, D., Engstrom, A., Andersson, K., Steiner, H., Bennich, H. & Boman, H. G. (1983) Insect immunity. […] Values are expressed as the mean of at least 5 experiments with a divergence of not more than one dilution step. […]

Data set [2] has as its system Human red cells. The data set can be described thus: Red blood cell lysis. In kind it is cell-based.
Data set [3] relates to Staphylococcus aureus Cowan1. The data set can be described thus: Antimicrobial inhibition zone assay, S. aureus. In kind it is cell-based. The conditions noted are these: inhibition zones on agarose plates. Here is the method: (§1) Antimicrobial assay. The antibacterial activity was tested against Bacillus megaterium BM11, Staphylococcus aureus Cowahl, Streptococcus pyogenes b hemolytic group A, Pseudomonas aeruginosa ATCC 15692, Escherichia coli D21, E. coli D21e7, E. coli D21f1, E. coli D21f2 and E. coli D22, using an inhibition zone assay on LB broth/1% agarose plates seeded with 2×10^5 viable bacteria (Hultmark, D., Engstrom, A., Andersson, K., Steiner, H., Bennich, H. & Boman, H. G. (1983) Insect immunity. Attacin, a family of antibacterial proteins from Hyulophora cecropin, EMBO J. 2, 571-576). Fresh cultures of Candida albicans ATCC 10261 were inoculated in WB broth, pH 6.5, and grown at 37° C. to approximately 0.6 OD600. Before plating, cultures were diluted 300 fold and then incubated overnight at 37° C. in the presence of the test peptide, the concentration of which was established by amino acid analysis. Inhibition zones were measured and the lethal concentration (LC, the lowest concentration that inhibits the growth) was calculated from the diameter of the zones obtained in serial dilutions of the test substance by using the formula given in Hultmark, D., Engstrom, A., Andersson, K., Steiner, H., Bennich, H. & Boman, H. G. (1983) Insect immunity. […] Values are expressed as the mean of at least 5 experiments with a divergence of not more than one dilution step.

In data set [4] the test system is Bacillus megaterium BM11. Description: Antimicrobial inhibition zone assay, B. megaterium. The format is cell-based. The note with it: B. megaterium BmII; inhibition zones on agarose plates. Here is the method: as §1
In data set [5] the test system is Staphylococcus aureus Cowan1. The note with it: S. aureus Cowan1; cecropin data from Hultmark et al. (1983); cited from earlier work.
Another data set has as its system Y. pseudotubercolosis. The conditions noted are these: cecropin data from Hultmark et al. (1983); cited from earlier work.
For data set [6], the system named is Bacillus megaterium BM11. The conditions noted are these: B. megaterium BmII; cecropin data from Hultmark et al. (1983); cited from earlier work.
Data set [7] has as its system Escherichia coli D21. The note with it: E. coli D21; cecropin data from Hultmark et al. (1983); cited from earlier work.
The subject of data set [8] is Human red cells. The conditions noted are these: cecropin data from Hultmark et al. (1983); cited from earlier work.

Turning to `CC[C@H](C)[C@H](NC(=O)CN)C(=O)NCC(=O)N[C@@H](C)C(=O)N[C@H](C(=O)N[C@@H](CC(C)C)C(=O)N[C@@H](CCCCN)C(=O)N[C@H](C(=O)N[C@@H](CC(C)C)C(=O)N[C@H](C(=O)N[C@H](C(=O)NCC(=O)N[C@@H](CC(C)C)C(=O)N1CCC[C@H]1C(=O)N[C@@H](C)C(=O)N[C@@H](CC(C)C)C(=O)N[C@H](C(=O)N[C@@H](CO)C(=O)N[C@@H](Cc1c[nH]c2ccccc12)C(=O)N[C@H](C(=O)N[C@@H](CCCCN)C(=O)N[C@@H](CCCNC(=N)N)C(=O)N[C@@H](CCCCN)C(=O)N[C@@H](CCCNC(=N)N)C(=O)N[C@@H](CCC(N)=O)C(=O)N[C@@H](CCC(N)=O)C(N)=O)[C@@H](C)CC)[C@@H](C)CC)[C@@H](C)O)[C@@H](C)O)C(C)C)C(C)C` [Melittin], the results for the Lethal concentration (with Escherichia coli D21 [1]; in data set [3]; with Bacillus megaterium BM11 [4]) were 0.8 µM, 0.2 µM and 0.6 µM, respectively. Also, the “Lethal concentration (lytic activity)” value in the data set with Human red cells [2] worked out at 0.9 µM.
Take “Cecropin A: cecropin from insect hemolymph (KWKLFKKIEKVGQNIRDGIIKAGPAVAVVGQATQIAK; ends and bridges not checked; UniProt P01507 27-63, looked up)”: the Lethal concentration was > 200 µM in data set [5], 0.5 µM in the data set on Y. pseudotubercolosis, 0.5 µM in the data set with Bacillus megaterium BM11 [6] and 0.3 µM with Escherichia coli D21 [7]. Further, in the data set on Human red cells [8], the “Lethal concentration (lytic activity)” value is > 400 µM.
For the compound FIGSALKVLAGVLPSVISWVKQ-NH2 [MLP], the “Lethal concentration (lytic activity)” value with Human red cells [2] is 0.5 µM.
In the case of FLPLIGRVLSGIL-NH2 [Temporin A], the “Lethal concentration (lytic activity)” value in the data set on Human red cells [2] was > 120 µM.
LLPIVGNLLKSLL-NH2 [Temporin B]: the “Lethal concentration (lytic activity)” value in the data set on Human red cells [2] was > 120 µM.

Values taken from patent US6310176A, “Antimicrobially active polypeptides” (SBL Vaccin AB, priority 1996, dated 2001).
